Test system: SW480 cells
Test: Proliferation of SW480 colon cancer cells
Format: cell-based, human
Conditions: 15 μM, 48 h, with or without LPS 100 ng/ml
Procedure: SW480 cells were seeded and incubated in medium alone or supplemented with water, 15 μM penetratin, 15 μM P7-Pen or 15 μM P7-N4-Pen. Under each condition cells were incubated both without LPS and with 100 ng/ml LPS. Cells were incubated for 48 hours then counted. […] The presence of LPS made no difference to the effect of the peptides on proliferation. Results are based on 3 biological replicates, error bars show standard deviation of mean.
SW480 (ATCC CCL-228) and Jurkat (ATCC Clone E6-1; TIB-152) cells were cultured in RPMI 1640 (Sigma-Aldrich, Schnelldorf, Germany) supplemented with 10% heat-inactivated FCS, penicillin/streptomycin (Life Technologies) and 20 mM L-Glutamine. THP-1 cells (ATCC TIB-202) were cultured in RPMI-1640 (high-glucose, ATCC) supplemented with 10% heat inactivated foetal calf serum (FCS), 100 nM penicillin/streptomycin and 5 μM β-mercaptoethanol (Sigma). THP-1 cells were differentiated with 60 ng/ml phorbol 12-myristate 13-acetate (PMA, Sigma) for 72 h, followed by 24 or 48 h in medium without PMA.
The peptides were tested against the SW480 cell line in the presence and absence of LPS.

Ac-ITVYASVTLTGRQIKIWFQNRRMKWKK-NH2 [Peptide P7-Pen]
effect on proliferation of SW480 cells: a degree of anti-proliferative effect

From patent publication US20230220047A1, “PEPTIDES FOR TREATMENT OF SEPSIS AND CANCER” (NORWEGIAN UNIVERSITY OF SCIENCE AND TECHNOLOGY (NTNU), priority 2020, published 2023)
